Source: paper PMC8746493, “Co-Inhibition of P-gp and Hsp90 by an Isatin-Derived Compound Contributes to the Increase of the Chemosensitivity of MCF7/ADR-Resistant Cells to Doxorubicin” (Molecules, 2021)

Molecular target: T1, Hsp90α (Homo sapiens, UniProt P07900)
T1 construct: gene HSP90AA1; full length protein
Assay: SPR (Biacore […], immobilized recombinant Hsp90α)
Type: binding

Kd: 41.2 ± 2.1 nM
Compound: O=C(CN1C(=O)NC(c2ccccc2)(c2ccccc2)C1=O)NN=C1C(=O)Nc2ccc(F)cc21 [compound 16, HAA2021]
